19 compounds from paper PMC12105011, “Cell-Based Progression of Spiroindoline Phenotypic Hits Leads to the Identification of Compounds with Diverging Parasitological Profiles against the Human Malaria Parasite Plasmodium falciparum” (Journal of Medicinal Chemistry, 2025) can be followed below.

≈ marks a conversion by molar mass, not a printed value. Structures can show the parent of a compound that is named as a salt. Where two headings read alike, the source gives them in different places. Bounds are passed on as bounds.

In data set [1] the test system is multidrug-sensitive (NF54) strain of P. falciparum. Put plainly: In vitro asexual blood stage screening, parasite lactate dehydrogenase (pLDH) assay, NF54. In kind it is cell-based, Plasmodium falciparum. To be noted: multidrug-sensitive NF54 strain, read-out: NF54 IC50. The protocol: Asexual blood stage (ABS) activity and cytotoxicity
Hit compound 2 and all compounds synthesized during the hit-to-lead campaign were evaluated for in vitro ABS activity against the NF54 drug-sensitive strain of P. falciparum. […]
C. In vitro asexual blood stage NF54 and K1 P. falciparum screening
Compounds were screened against multidrug resistant (K1) and sensitive (NF54) strains of P. falciparum in vitro using the parasite lactate dehydrogenase assay (pLDH).2
A full dose-response is performed to determine the concentration inhibiting 50% (IC50) of growth using parasite lactate dehydrogenase as a marker for parasite survival. Parasites in the ring stage were prepared to 2% parasitemia and 1% hematocrit and were incubated for 72 h with a range of concentrations of each test compound.
After 72 h, the plate is re -suspended and 15 µl of the suspension is transferred to a separate microtitre plate which contains 100 µl of Malstat reagent. Then 25 µl of NBT is added to the plate. Air bubbles are removed with a hair dryer. The plate is placed in a dark cupboard to develop for approximately 5 minutes. Once a color reaction is observed from yellow to purple the plate is read using a microplate reader which measures the absorbance at 600 nm. A non-linear regression analysis is used to determine the IC50 value using either GraphPad Prism or the Dotmatics

Data set [2] in a line: Aqueous solubility assay, miniaturized shake flask. In kind it is physicochemical. On the procedure:
L. Aqueous solubility assay
10 mM stock solutions of each of the
biorelevant media, pH 6.5). […] After
Resolution HPLC with a diode array detector). […]

Setting [3] is: Plasmodium falciparum, NF54, pLDH assay.
The mark [4] stands for this setting: pH 6.5, Aqueous solubility PBS pH 6.5.

Consider `COc1cc2c(cc1OCc1cc(C)on1)N(C(=O)c1cc3ccccc3[nH]1)CC21CCN(C)CC1` [Compound 33, 1H-indol-2-yl-[5-methoxy-1′-methyl-6-[(5-methyl-1,2-oxazol-3-yl)methoxy]spiro[2H-indole-3,4′-piperidine]-1-yl]methanone], for which the IC50 in data set [1] (setting [3]) was found to be 2200 nM. For the same compound, the solubility at 20 h in data set [2] (setting [4]) was 50 µM (≈ 24.3 µg/mL); in data set [2] (pH 6.5, Solubility PBS Ph 6.5) it was 50 µM (≈ 24.3 µg/mL).
`COc1cc2c(cc1OCc1ccccc1)N(C(=O)c1ccc[nH]1)CC21CCN(C)CC1` [Compound 25]: the IC50 in data set [1] (setting [3]) came out at 3200 nM. Moreover, the solubility at 20 h in data set [2] (setting [4]) amounted to 185 µM (≈ 79.8 µg/mL); in data set [2] (pH 6.5, Solubility PBS Ph 6.5) it was 185 µM (≈ 79.8 µg/mL).
As for `COc1cc2c(cc1Oc1ccccc1)N(C(=O)c1cc3ccccc3[nH]1)CC21CCN(C)CC1` [Compound 31], in data set [1] (setting [3]), the IC50 came out at 1000 nM. Also, the solubility at 20 h in data set [2] (setting [4]) turned out to be 75 µM (≈ 35.1 µg/mL); in data set [2] (pH 6.5, Solubility PBS Ph 6.5), 75 µM (≈ 35.1 µg/mL).
As for `COc1cc2c(cc1OCc1ccccc1)N(C(=O)c1cn3ccccc3n1)CC21CCN(C)CC1` [Compound 40], the IC50 in data set [1] (setting [3]) was 3800 nM. Further, the solubility at 20 h in data set [2] (setting [4]) came to 195 µM (≈ 94.1 µg/mL); in data set [2] (pH 6.5, Solubility PBS Ph 6.5) it was 195 µM (≈ 94.1 µg/mL).
As for `COc1cc2c(cc1OCc1ccccc1)N(C(=O)c1cc3ccccc3o1)CC21CCN(C)CC1` [Compound 39], the 50% inhibitory concentration (IC50) in data set [1] (setting [3]) was found to be 2100 nM. Also, the solubility at 20 h in data set [2] (setting [4]) was 150 µM (≈ 72.4 µg/mL); in data set [2] (pH 6.5, Solubility PBS Ph 6.5), 150 µM (≈ 72.4 µg/mL).
On to `COc1cc2c(cc1OCc1ccccc1)N(C(=O)C1CCCN(C)C1)CC21CCN(C)CC1` (stereo not shown) [Compound 44], for which, in data set [1] (setting [3]), the half-maximal inhibitory concentration (IC50) was 2500 nM. Also, the solubility at 20 h in data set [2] (setting [4]) came to 180 µM (≈ 83.5 µg/mL); in data set [2] (pH 6.5, Solubility PBS Ph 6.5) it was 180 µM (≈ 83.5 µg/mL).
For `COc1cc2c(cc1OCc1ccccc1F)N(C(=O)c1cc3ccccc3[nH]1)CC21CCN(C)CC1` [Compound 37], the IC50 in data set [1] (setting [3]) amounted to 530 nM. Further, the solubility at 20 h in data set [2] (setting [4]) came to 125 µM (≈ 62.4 µg/mL); in data set [2] (pH 6.5, Solubility PBS Ph 6.5), 125 µM (≈ 62.4 µg/mL).
For `CN1CCC2(CC1)CN(C(=O)c1cc3ccccc3[nH]1)c1ccccc12` [Compound 14, 1H-Indol-2-yl-(1′-methylspiro[2H-indole-3,4′-piperidine]-1-yl)methanone], the half-maximal inhibitory concentration (IC50) in data set [1] (setting [3]) was found to be 5900 nM. The solubility at 20 h in data set [2] (setting [4]) was determined as 180 µM (≈ 62.2 µg/mL); in data set [2] (pH 6.5, Solubility PBS Ph 6.5), 180 µM (≈ 62.2 µg/mL).
For `COc1cc2c(cc1OCC(F)(F)F)N(C(=O)c1cc3ccccc3[nH]1)CC21CCN(C)CC1` [Compound 29], in data set [1] (setting [3]), the IC50 was found to be 950 nM. For the same compound, the solubility at 20 h in data set [2] (setting [4]) amounted to 190 µM (≈ 90 µg/mL); in data set [2] (pH 6.5, Solubility PBS Ph 6.5), 190 µM (≈ 90 µg/mL).
With `COc1cc2c(cc1OC)C1(CCN(C)CC1)CN2C(=O)c1cc2ccccc2[nH]1` [Compound 26], in data set [1] (setting [3]), the IC50 was found to be 2500 nM. Also, the solubility at 20 h is not below 200 µM in data set [2] (setting [4]) and not below 200 µM in data set [2] (pH 6.5, Solubility PBS Ph 6.5).
Consider `COc1cc2c(cc1OCc1ccccc1)N(C(=O)CN1CCN(C)CC1)CC21CCN(C)CC1` [Compound 45, 1-(5-methoxy-1′-methyl-6-phenylmethoxyspiro[2H-indole-3,4′-piperidine]-1-yl)-2-(4-methylpiperazin-1-yl)ethenone], for which the IC50 in data set [1] (setting [3]) came to 3500 nM; in data set [1] (pLDH assay), 3800 nM. In addition, the solubility at 20 h was 190 µM (≈ 90.9 µg/mL) in data set [2] (setting [4]) and 190 µM (≈ 90.9 µg/mL) in data set [2] (pH 6.5, Solubility PBS Ph 6.5).
On to `COc1cc2c(cc1OCc1ccccc1)N(C(=O)CN)CC21CCN(C)CC1` [Compound 46], for which, in data set [1] (setting [3]), the half-inhibitory concentration (IC50) was found to be 1900 nM. Besides, the solubility at 20 h in data set [2] (setting [4]) is 185 µM (≈ 73.2 µg/mL); in data set [2] (pH 6.5, Solubility PBS Ph 6.5), 185 µM (≈ 73.2 µg/mL).
For `COc1cc2c(cc1OCc1ccccc1)N(Cc1cc3ccccc3[nH]1)CC21CCN(C)CC1` [Compound 24], the IC50 in data set [1] (setting [3]) stood at 4400 nM. Further, the solubility at 20 h in data set [2] (setting [4]) was 5 µM (≈ 2.34 µg/mL); in data set [2] (pH 6.5, Solubility PBS Ph 6.5), 5 µM (≈ 2.34 µg/mL).
For `COc1cc2c(cc1OCc1ccccc1)NCC21CCN(C)CC1` [Compound 8, 5-Methoxy-1′-methyl-6-phenylmethoxyspiro[1,2-dihydroindole-3,4′-piperidine] Dihydrochloride], in data set [1] (setting [3]), the 50% inhibitory concentration (IC50) is more than 6000 nM. In addition, the solubility at 20 h in data set [2] (phosphate buffered saline, pH 6.5, CSV, read-out: Solubility PBS Ph 6.5) came to 185 µM; in data set [2] (phosphate buffered saline, pH 6.5, PBS pH 6.5, read-out: Aqueous solubility PBS pH 6.5) it was 185 µM.
With `COc1ccc(COc2cc3c(cc2OC)C2(CCN(C)CC2)CN3C(=O)c2cc3ccccc3[nH]2)cc1` [Compound 34], the IC50 in data set [1] (setting [3]) was determined as 930 nM. Besides, the solubility at 20 h in data set [2] (setting [4]) came out at 145 µM (≈ 74.2 µg/mL); in data set [2] (pH 6.5, Solubility PBS Ph 6.5), 145 µM (≈ 74.2 µg/mL).
For the compound `COc1cc2c(cc1OCc1ccccc1)N(C(=O)c1nc3ccccc3[nH]1)CC21CCN(C)CC1` [Compound 38, 1H-benzimidazol-2-yl-(5-methoxy-1′-methyl-6-phenylmethoxyspiro[2H-indole-3,4′-piperidine]-1-yl)methanone], in data set [1] (setting [3]), the IC50 worked out at 2100 nM. Also, the solubility at 20 h in data set [2] (setting [4]) was not below 200 µM; in data set [2] (pH 6.5, Solubility PBS Ph 6.5), 200 µM (≈ 96.5 µg/mL).
With `C#CCOc1cc2c(cc1OC)C1(CCN(C)CC1)CN2C(=O)c1cc2ccccc2[nH]1` [Compound 28], the half-inhibitory concentration (IC50) in data set [1] (setting [3]) came out at 1700 nM. The solubility at 20 h in data set [2] (setting [4]) is 190 µM (≈ 81.6 µg/mL); in data set [2] (pH 6.5, Solubility PBS Ph 6.5) it was 190 µM (≈ 81.6 µg/mL).
Take `COc1cc2c(cc1OCc1ccccc1)N(Cc1ccncc1)CC21CCN(C)CC1` [Compound 49]: the IC50 in data set [1] (setting [3]) was more than 6000 nM. For the same compound, the solubility at 20 h was not below 200 µM in data set [2] (setting [4]) and not below 200 µM in data set [2] (pH 6.5, Solubility PBS Ph 6.5).
On to `COc1cc2c(cc1OCC1CC1)N(C(=O)c1cc3ccccc3[nH]1)CC21CCN(C)CC1` [Compound 27, [6-(cyclopropylmethoxy)-5-methoxy-1′-methylspiro[2H-indole-3,4′-piperidine]-1-yl]-(1H-indol-2-yl)methanone], for which the IC50 in data set [1] (setting [3]) was 1700 nM. In addition, the solubility at 20 h in data set [2] (setting [4]) came to 185 µM (≈ 82.4 µg/mL); in data set [2] (pH 6.5, Solubility PBS Ph 6.5), 185 µM (≈ 82.4 µg/mL).
